Legend:
Assay type in all cases: biochemical
[1] = molecular target: T1, wild type (wt) alpha-galactosidase (Homo sapiens, UniProt P06280); assay: alpha-galactosidase activity assay in HL60 lysate (4MU-α-D-gal); conditions: at a concentration of 100 uM, 0.5 mM 4MU-α-D-gal, pH 4.5
T1 construct: The lysates were used as a source for wild type (wt) alpha-galactosidase; endogenous in cells; host or cells: HL60 (ECACC No. 98070106) lysate
T1 sequence (P06280 32-429): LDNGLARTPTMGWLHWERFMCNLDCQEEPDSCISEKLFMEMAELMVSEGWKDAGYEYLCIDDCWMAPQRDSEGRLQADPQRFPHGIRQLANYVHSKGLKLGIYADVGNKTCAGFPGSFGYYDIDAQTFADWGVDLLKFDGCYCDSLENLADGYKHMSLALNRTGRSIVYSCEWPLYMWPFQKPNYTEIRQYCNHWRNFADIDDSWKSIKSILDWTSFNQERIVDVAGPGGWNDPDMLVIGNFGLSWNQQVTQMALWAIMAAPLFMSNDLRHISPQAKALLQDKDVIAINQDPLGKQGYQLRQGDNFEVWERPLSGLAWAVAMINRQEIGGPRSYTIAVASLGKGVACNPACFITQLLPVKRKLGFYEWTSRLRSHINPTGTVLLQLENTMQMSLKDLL

[2] = molecular target: T2, wild type (wt) lysosomal alpha-glucosidase (Homo sapiens, UniProt P10253); assay: alpha-glucosidase activity assay in HL60 lysate (4MU-α-D-glc); conditions: at a concentration of 100 uM, 0.5 mM 4MU-α-D-glc, pH 4.5;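 further: fluorometric rate of 4MU product release read at 360 nm excitation and 450 nm emission, reactions run at 37 °C in citric phosphate buffer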
T2 construct: The lysates were used as a source for wild type (wt) lysosomal alpha-glucosidase; endogenous in cells; host or cells: HL60 (ECACC No. 98070106) lysate

[3] = molecular target: T3, wild type (wt) beta-glucocerebrosidase (Homo sapiens, UniProt P04062); assay: beta-glucocerebrosidase activity assay in HL60 lysate (4MU-β-D-glc); conditions: at a concentration of 100 μM, 0.5 mM 4MU-β-D-glc;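 further: fluorometric read-out of 4MU liberated from the substrate (ex 360 nm, em 450 nm) after 37 °C incubation, reaction stopped with sodium carbonate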
T3 construct: The lysates were used as a source for wild type (wt) beta-glucocerebrosidase; endogenous in cells; host or cells: HL60 (ECACC No. 98070106) lysate
T3 sequence (P04062 40-536): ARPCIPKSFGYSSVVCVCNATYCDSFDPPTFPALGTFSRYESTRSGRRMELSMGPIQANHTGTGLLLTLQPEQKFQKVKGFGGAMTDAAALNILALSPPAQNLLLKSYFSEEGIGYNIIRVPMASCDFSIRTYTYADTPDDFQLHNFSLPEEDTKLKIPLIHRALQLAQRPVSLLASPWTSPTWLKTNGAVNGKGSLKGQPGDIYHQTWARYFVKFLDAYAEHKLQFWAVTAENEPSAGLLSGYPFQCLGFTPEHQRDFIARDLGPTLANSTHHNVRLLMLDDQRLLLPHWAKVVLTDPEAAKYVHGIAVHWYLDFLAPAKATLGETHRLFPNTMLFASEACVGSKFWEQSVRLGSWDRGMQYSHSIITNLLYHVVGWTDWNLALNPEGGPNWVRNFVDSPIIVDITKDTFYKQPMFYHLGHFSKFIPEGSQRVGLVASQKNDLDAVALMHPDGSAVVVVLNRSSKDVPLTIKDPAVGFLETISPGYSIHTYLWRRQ

[4] = tested on: α-D-glucosidase (Bacillus sterothermophilus); assay: glycosidase assay with p-nitrophenyl substrates (Example 2); conditions: 10 μl of 5 mM iminosugar solution in 70 μl incubation mixture; 20° C.
Experimental: (§1) The assays were conducted as described by Watson et al. 1997, Phytochemistry 46: 255-259 using p-nitrophenyl-substrates. Assays were carried out in microtitre plates. Enzymes were assayed in 0.1M citric acid/0.2M di-sodium hydrogen phosphate (Mcllvaine) buffers at the optimum pH for the enzyme. All assays were carried out at 20° C. All enzymes and substrates were purchased from Sigma Aldrich Chemicals Limited. The incubation mixture consisted of 10 μl of enzyme solution, 10 μl of the iminosugars solution (made up in deionised water at 5 mM) and 50 μl of the appropriate 5 mM p-nitrophenyl substrate made up in McIlvaine buffer at the optimum pH for the enzyme. The reactions were stopped with 0.4M glycine (pH 10.4) during the exponential phase of the reaction, which was determined at the beginning of the assay using blanks with water, which were incubated for a range of time periods to measure the reaction rate using 5 mM substrate solution. Absorbances were read at 405 nm. Water was substituted for the inhibitors in the blanks.
(§2) The glycosidases used were α-D-glucosidase (yeast), α-D-glucosidase (Bacillus sterothermophilus), α-D-glucosidase (rice), amyloglucosidase (Aspergillus niger), β-D-glucosidase (almond), α-D-galactosidase (green coffee beans), β-D-galactosidase (bovine liver), α-L-fucosidase (bovine kidney), α-D-mannosidase (Jack bean), β-D-mannosidase (Cellullomonas fimi), Naringinase (Penicillium decumbens), N-acetyl-β-D-glucosaminidase (Bovine kidney), N-acetyl-β-D-glucosaminidase (Aspergillus oryzae) and N-acetyl-β-D-glucosaminidase (Jack bean)

[5] = molecular target: T4, α-D-galactosidase (green coffee beans) (Coffea arabica, UniProt Q42656); assay: as above; conditions: 10 μl of 5 mM iminosugar solution in 70 μl incubation mixture; 20° C.; read-out: Promotion of glycosidase activity: α-D-galactosidase (Green coffee bean)
T4 construct: purchased Sigma Aldrich Chemicals Limited
T4 sequence (Q42656 16-378): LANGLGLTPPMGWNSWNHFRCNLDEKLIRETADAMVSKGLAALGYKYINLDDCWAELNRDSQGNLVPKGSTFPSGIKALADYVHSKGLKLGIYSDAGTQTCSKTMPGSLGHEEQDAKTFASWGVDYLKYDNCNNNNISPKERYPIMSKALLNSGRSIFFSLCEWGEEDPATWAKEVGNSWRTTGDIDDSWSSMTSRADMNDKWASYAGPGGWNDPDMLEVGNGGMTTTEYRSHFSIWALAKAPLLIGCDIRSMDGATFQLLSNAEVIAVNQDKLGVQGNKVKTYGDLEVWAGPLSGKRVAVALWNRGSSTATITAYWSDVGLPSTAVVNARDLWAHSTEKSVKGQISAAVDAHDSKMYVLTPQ
Experimental: as §1, §2

inhibition at 100 µM [1] [%]	inhibition at 100 µM [3] [%]	Compound	also measured
> 50	–	C[C@H]1N[C@@H](CO)[C@H](O)[C@H](O)[C@H]1O [Compound 264, (2S,3S,4R,5S,6R)-2-(hydroxymethyl)-6-methylpiperidine-3,4,5-triol]	–
–	> 50	OC[C@@H]1[C@@H](O)[C@H](O)[C@@H](CO)N1CCCOc1ccccc1 [Compound 343, (2R,3R,4R,5R)-2,5-bis(hydroxymethyl)-1-(3-phenoxypropyl)pyrrolidine-3,4-diol]	inhibition at 100 µM [2]: > 50%
> 50	–	OCCN1[C@H](CO)[C@H](O)[C@H](O)[C@H]1CO [Compound 168, (2R,3R,4S,5R)-1-(2-hydroxyethyl)-2,5-bis(hydroxymethyl)pyrrolidine-3,4-diol]	–
–	> 50	OC[C@@H]1[C@@H](O)[C@H](O)[C@@H](O)CN1Cc1ccc(-c2ccccc2)cc1 [Compound 524, (2R,3R,4R,5S)-1-(biphenyl-4-ylmethyl)-2-(hydroxymethyl)piperidine-3,4,5-triol]	inhibition at 100 µM [2]: > 50%
> 50	–	OC[C@H]1NC[C@H](O)[C@@H](O)[C@H]1O [Compound 215, (2R,3S,4R,5S)-2-(hydroxymethyl)piperidine-3,4,5-triol]	–
–	> 50	OC[C@@H]1[C@@H](O)[C@H](O)[C@@H](O)CN1CCCOc1ccccc1 [Compound 288, (2R,3R,4R,5S)-2-(hydroxymethyl)-1-(3-phenoxypropyl)piperidine-3,4,5-triol]	inhibition at 100 µM [2]: > 50%
–	–	N[C@@H]1CN[C@H](CO)C1 [Compound 344, ((2S,4S)-4-aminopyrrolidin-2-yl)methanol]	Promotion of glycosidase activity: α-D-glucosidase (Bacillus sterothermophilus) [4]: 71 % increase in absorbance compared to the water controls
> 50	–	C=CCC[C@H]1N[C@@H](CO)[C@H](O)[C@@H](O)[C@@H]1O [Compound 380, (2R,3R,4S,5S,6S)-2-(but-3-enyl)-6-(hydroxymethyl)piperidine-3,4,5-triol]	–
–	> 50	O[C@H]1[C@H](O)[C@@H](O)CN2CC[C@H](O)[C@H]12 [Compound 104, (1S,6S,7R,8R,8aR)-octahydroindolizine-1,6,7,8-tetraol]	inhibition at 100 µM [2]: > 50%
–	> 50	CN1C[C@H](O)[C@@H](O)[C@H](O)[C@H]1CO [Compound 3, (2R,3R,4R,5S)-2-(hydroxymethyl)-1-methylpiperidine-3,4,5-triol]	inhibition at 100 µM [2]: > 50%
–	–	CCCCCCCCCN1C[C@H](NC(C)=O)[C@@H](O)[C@@H]1CO [Compound 338, N-((3S,4R,5S)-4-hydroxy-5-(hydroxymethyl)-1-nonylpyrrolidin-3-yl)acetamide]	Promotion of glycosidase activity: α-D-glucosidase (Bacillus sterothermophilus) [4]: 170 % increase in absorbance compared to the water controls; activation at 714 µM [5]: 35%
–	> 50	OCCCCCCCCCN1C[C@H](O)[C@@H](O)[C@H](O)[C@H]1CO [Compound 724, (2R,3R,4R,5S)-2-(hydroxymethyl)-1-(9-hydroxynonyl)piperidine-3,4,5-triol]	inhibition at 100 µM [2]: > 50%
–	> 50	OC[C@@H]1NC[C@H](O)[C@H]1O [Compound 160, (2S,3S,4S)-2-(hydroxymethyl)pyrrolidine-3,4-diol]	inhibition at 100 µM [2]: > 50%
–	–	CCCCN1C[C@@H](NC(C)=O)C[C@H]1CO [Compound 350, N-((3S,5S)-1-butyl-5-(hydroxymethyl)pyrrolidin-3-yl)acetamide]	Promotion of glycosidase activity: α-D-glucosidase (Bacillus sterothermophilus) [4]: 160 % increase in absorbance compared to the water controls; activation at 714 µM [5]: 38%
–	–	CCCCOC(=O)[C@@H]1[C@@H](O)[C@H](O)[C@@H](O)CN1CCCC [Compound 205, (2S,3R,4R,5S)-butyl 1-butyl-3,4,5-trihydroxypiperidine-2-carboxylate]	Promotion of glycosidase activity: α-D-glucosidase (Bacillus sterothermophilus) [4]: 60 % increase in absorbance compared to the water controls
–	–	CC(=O)N[C@H]1C[C@@H](CO)N(CCO)C1 [Compound 347, N-((3S,5S)-1-(2-hydroxyethyl)-5-(hydroxymethyl)pyrrolidin-3-yl)acetamide]	Promotion of glycosidase activity: α-D-glucosidase (Bacillus sterothermophilus) [4]: 68 % increase in absorbance compared to the water controls
–	–	N[C@@H]1CN(Cc2ccccc2)[C@H](CO)[C@H]1O [Compound 370, (2R,3S,4R)-4-amino-1-benzyl-2-(hydroxymethyl)pyrrolidin-3-ol]	Promotion of glycosidase activity: α-D-glucosidase (Bacillus sterothermophilus) [4]: 81 % increase in absorbance compared to the water controls; activation at 714 µM [5]: 43%
> 50	–	O=C1N[C@H](CO)[C@@H](O)[C@H](O)[C@@H]1O [Compound 112, (3S,4S,5R,6R)-3,4,5-trihydroxy-6-(hydroxymethyl)piperidin-2-one]	–
> 50	–	OC[C@H]1N[C@H](CO)[C@H](O)C(O)[C@H]1O (stereo partly drawn) [Compound 189, (2R,3S,5S,6R)-2,6-bis(hydroxymethyl)piperidine-3,4,5-triol]	–
> 50	–	C[C@H]1N[C@H](CO)[C@H](O)[C@H](O)[C@H]1O [Compound 263, (2R,3S,4R,5S,6R)-2-(hydroxymethyl)-6-methylpiperidine-3,4,5-triol]	–
> 50	–	C[C@@H]1N[C@@H](CO)[C@H](O)[C@H](O)[C@H]1O [Compound 269, (2S,3S,4R,5S,6S)-2-(hydroxymethyl)-6-methylpiperidine-3,4,5-triol]	–
–	–	CN1C[C@@H](O)[C@H](O)[C@@H](O)C1 [Compound 253, (3R,4r,5S)-1-methylpiperidine-3,4,5-triol]	Promotion of glycosidase activity: α-D-glucosidase (Bacillus sterothermophilus) [4]: 56 % increase in absorbance compared to the water controls
> 50	–	CNC(=O)[C@H]1N[C@H](CO)[C@@H](O)[C@H](O)[C@@H]1O [Compound 246, (2S,3R,4S,5R,6R)-3,4,5-trihydroxy-6-(hydroxymethyl)-N-methylpiperidine-2-carboxamide]	–
> 50	–	OC[C@H]1NC[C@@H](O)[C@H](O)[C@H]1O [Compound 447, (2R,3S,4S,5R)-2-(hydroxymethyl)piperidine-3,4,5-triol]	–
> 50	–	C[C@H]1NC[C@H](O)[C@@H](O)[C@H]1O [Compound 258, (2R,3S,4R,5S)-2-methylpiperidine-3,4,5-triol]	–
–	> 50	OC[C@@H]1[C@@H](O)[C@H](O)[C@@H](CO)N1CCOCc1ccccc1 [Compound 556, (2R,3R,4R,5R)-1-(2-(benzyloxy)ethyl)-2,5-bis(hydroxymethyl)pyrrolidine-3,4-diol]	inhibition at 100 µM [2]: > 50%

Compound	inhibition at 100 µM [1] [%]	inhibition at 100 µM [3] [%]	also measured
O[C@@H]1[C@@H](O)[C@H](O)[C@]2(O)CC[C@H]1N2 [Compound 21, (1R,2S,3R,4S,5R)-8-azabicyclo[3.2.1]octane-1,2,3,4-tetraol]	> 50	> 50	–

— US20110237538A1, “TREATMENT OF LYSOSOMAL STORAGE DISORDERS AND OTHER PROTEOSTATIC DISEASES” (SUMMIT CORPORATION PLC, priority 2008, published 2011)
